{
  "source": "patent US6800628B2",
  "about": "“N-substituted 4-((-4′-aminobenzoyl)-oxymethyl)-piperidines having gastric prokinetic properties” (Janssen Pharmaceutica N.V., priority 1996, dated 2004)",
  "key": {"[1]": {"target": "5 HT4 receptor (Homo sapiens, UniProt Q13639)", "sequence (Q13639 whole entry)": "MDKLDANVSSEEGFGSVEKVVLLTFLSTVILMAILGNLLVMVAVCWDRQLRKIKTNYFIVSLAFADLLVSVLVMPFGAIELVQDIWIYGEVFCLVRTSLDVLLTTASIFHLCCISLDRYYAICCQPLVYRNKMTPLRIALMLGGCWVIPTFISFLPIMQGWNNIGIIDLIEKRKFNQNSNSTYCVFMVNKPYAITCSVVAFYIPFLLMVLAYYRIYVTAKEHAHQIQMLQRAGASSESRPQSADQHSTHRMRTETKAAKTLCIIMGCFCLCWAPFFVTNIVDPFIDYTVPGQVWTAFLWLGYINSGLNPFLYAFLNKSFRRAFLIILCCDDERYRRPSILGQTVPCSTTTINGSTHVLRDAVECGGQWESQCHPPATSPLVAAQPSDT", "details": "stated for prior art compounds; cited from earlier work"}, "[2]": {"system": "conscious dogs", "assay": "Gastric emptying of an acaloric liquid test meal delayed by administration of lidamidine, in conscious dogs", "format": "in vivo, beagle dogs", "details": "gastric emptying of a liquid meal delayed by lidamidine in conscious dog; dose of 0.04 mg/kg of the test compound", "text": "“Gastric Emptying of an Acaloric Liquid Test Meal Delayed by […] of Lidamidine, in Conscious Dogs” Test\nFemale beagle dogs, weighing 7-14 kg, were trained to stand quietly in Pavlov frames. They were implanted with a gastric cannula under general anaesthesia and aseptic precautions. After a median laparatomy, an incision was made through the gastric wall in the longitudinal direction between the greater and the lesser curve, 2 cm above the nerves of Latarjet. The cannula was secured to the gastric wall by means of a double purse string suture and brought out via a stab wound at the left quadrant of the hypochondrium. Dogs were allowed a recovery period of at least two weeks. […]\nIn the 1 ml samples of the gastric contents, the glucose concentrations were measured on a Hitachi 717 automatic analyser by the hexokinase method (Schmidt, 1961).\nCurves were fitted to the measurement points (glucose vs time) using weighed non-linear regression analysis. Gastric emptying was quantified as the time needed to empty 70% of the meal (t70%). The control emptying time was calculated as the mean t70% of the last 5 solvent experiments of the same dog. Acceleration of delayed gastric emptying (Δt) was calculated as the time difference between t70% compound and t70% solvent. To correct for variations in emptying rate between dogs, Δt was expressed as % of t70% solvent (Schuurkes et al, 1992)."}},
  "data": [
    {"compound": "Nc1c(Cl)cc(C(=O)OCC2CCN(Cc3cccnc3)CC2)c2c1OCCO2", "note": "[5-(1-(3-pyridylmethyl)-4-piperidinyl)methyl-8-amino-7-chloro-1,4-benzo-dioxancarboxylate]", "values": [
      {"measurement": "5 HT4 receptor activity (agonistic / antagonistic)", "setting": "[1]", "result": "5 HT4 receptor antagonistic activity"}
    ]},
    {"compound": "COc1cc(N)c(Cl)cc1C(=O)OCC1CCN(CCCOc2ccc(F)cc2)CC1", "note": "[Compound 1, [1-[3-(4-fluorophenoxy)propyl]-4-piperidinyl]methyl 4-amino-5-chloro-2-methoxybenzoate]", "values": [
      {"measurement": "melting point", "result": 140, "unit": "°C"}
    ]},
    {"compound": "CCCCN1CCC(OC(=O)c2cc(Cl)c(N)c3c2OCCO3)CC1", "note": "[8-amino-7-chloro-1,4-benzodioxan-5-(1-butyl-4-piperidinyl)carboxylate]", "values": [
      {"measurement": "5 HT4 receptor activity (agonistic / antagonistic)", "setting": "[1]", "result": "5 HT4 receptor antagonistic activity"}
    ]},
    {"compound": "Cc1nccnc1NCCN1CCC(COC(=O)c2cc(Cl)c(N)c3c2OC(C)(C)C3)CC1", "note": "[Compound 6, [1-[2-[(3-methyl-2-pyrazinyl)amino]ethyl]-4-piperidinyl]methyl 4-amino-5-chloro-2,3-dihydro-2,2-dimethyl-7-benzofurancarboxylate]", "values": [
      {"measurement": "Acceleration (Δt/t)", "setting": "[2]", "result": "−0.41"}
    ]},
    {"compound": "CC(O)CCN1CCC(COC(=O)c2cc(Cl)c(N)c3c2OCCO3)CC1", "note": "(stereo not drawn) [[1-(3-hydroxybutyl)-4-piperidinyl]methyl-8-amino-7-chloro-1,4-benzodioxan-5-carboxylate]", "values": [
      {"measurement": "5 HT4 receptor activity (agonistic / antagonistic)", "setting": "[1]", "result": "5 HT4 receptor antagonistic activity"}
    ]},
    {"compound": "CCCCN1CCC(COC(=O)c2cc(Cl)c(N)c3c2OCCO3)CC1", "note": "[(1-butyl-4-piperidinyl)methyl 8-amino-7-chloro-1,4-benzodioxan-5-carboxylate]", "values": [
      {"measurement": "5 HT4 receptor activity (agonistic / antagonistic)", "setting": "[1]", "result": "5 HT4 receptor antagonistic activity"}
    ]},
    {"compound": "CCCCN1CCC(COC(=O)c2cc(Cl)c(N)c3c2OCC3)CC1.Cl", "note": "[(1-butyl-4-piperidinyl)methyl-4-amino-5-chloro-2,3-dihydrobenzo[b]furan-7-carboxylate hydrochloride]", "values": [
      {"measurement": "5 HT4 receptor activity (agonistic / antagonistic)", "setting": "[1]", "result": "5 HT4 receptor agonistic activity"}
    ]},
    {"compound": "CCCCN1CCC(COC(=O)c2cc(Cl)c(N)c3c2OCCC3)CC1.Cl", "note": "[(1-butyl-4-piperidinyl)methyl-5-amino-6-chloro-3,4-dihydro-2-H-1-benzopyran-8-carboxylate hydrochloride]", "values": [
      {"measurement": "5 HT4 receptor activity (agonistic / antagonistic)", "setting": "[1]", "result": "5 HT4 receptor antagonistic activity"}
    ]},
    {"compound": "CCOC(=O)CCN1CCC(COC(=O)c2cc(Cl)c(N)c3c2OCCO3)CC1", "note": "[[1-(2-carbo-ethoxyethyl)-4-piperidinyl]methyl-8-amino-7-chloro-1,4-benzodioxan-5-carboxylate]", "values": [
      {"measurement": "5 HT4 receptor activity (agonistic / antagonistic)", "setting": "[1]", "result": "5 HT4 receptor antagonistic activity"}
    ]}
  ]
}
